Reference: US8829010B2, “Pyrazolo[3,4-d]pyrimidine compounds and their use as PDE2 inhibitors and/or CYP3A4 inhibitors” (Pfizer Inc., priority 2011, dated 2014)
Values joined by “and” are separate entries in the source; they are usually repeats but may differ in a detail not shown here. Identical values can stand only once. Like-named read-outs stand apart in the source and are kept apart here.

Key:
[1] = biological target: T1, human full-length PDE2A3 enzyme (Homo sapiens (Human), UniProt O00408); experiment: Recombinant human PDE2A3 inhibition by [3H]-cGMP scintillation proximity assay (SPA); assay type: biochemical
T1 sequence (O00408 whole entry): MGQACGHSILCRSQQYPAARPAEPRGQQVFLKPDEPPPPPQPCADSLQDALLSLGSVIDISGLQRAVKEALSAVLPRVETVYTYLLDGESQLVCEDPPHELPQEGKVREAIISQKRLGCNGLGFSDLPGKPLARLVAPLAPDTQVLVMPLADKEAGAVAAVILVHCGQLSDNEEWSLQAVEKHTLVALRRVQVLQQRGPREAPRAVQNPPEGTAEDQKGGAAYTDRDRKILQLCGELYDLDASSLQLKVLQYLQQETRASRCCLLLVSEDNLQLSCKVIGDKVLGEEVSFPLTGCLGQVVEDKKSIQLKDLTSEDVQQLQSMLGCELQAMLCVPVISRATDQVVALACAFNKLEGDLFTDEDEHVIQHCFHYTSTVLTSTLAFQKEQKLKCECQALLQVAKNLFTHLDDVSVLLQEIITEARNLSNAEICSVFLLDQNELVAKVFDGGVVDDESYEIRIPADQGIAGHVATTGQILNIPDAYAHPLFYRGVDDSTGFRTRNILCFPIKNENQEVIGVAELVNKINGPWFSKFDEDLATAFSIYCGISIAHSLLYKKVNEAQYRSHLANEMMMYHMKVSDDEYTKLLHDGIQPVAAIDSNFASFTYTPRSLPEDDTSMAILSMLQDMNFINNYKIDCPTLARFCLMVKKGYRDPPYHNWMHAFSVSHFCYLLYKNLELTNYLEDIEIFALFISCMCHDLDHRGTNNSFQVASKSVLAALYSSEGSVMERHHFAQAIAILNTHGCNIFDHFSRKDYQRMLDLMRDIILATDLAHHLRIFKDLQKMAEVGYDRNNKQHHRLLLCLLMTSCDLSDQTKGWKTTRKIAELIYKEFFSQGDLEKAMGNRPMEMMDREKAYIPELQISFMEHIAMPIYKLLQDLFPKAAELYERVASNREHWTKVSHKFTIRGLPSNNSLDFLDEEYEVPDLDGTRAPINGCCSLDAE

[2] = biological target: T1, human full-length PDE2A3 enzyme; settings: literature values; IC50 values obtained were within 3× of these; read-out: PDE2 IC50, literature values of control compounds; cited from earlier work
CYP3A4 = CYP3A4 (Homo sapiens (Human), UniProt P08684); experiment: biochemical
CYP3A4, sequence (P08684 whole entry): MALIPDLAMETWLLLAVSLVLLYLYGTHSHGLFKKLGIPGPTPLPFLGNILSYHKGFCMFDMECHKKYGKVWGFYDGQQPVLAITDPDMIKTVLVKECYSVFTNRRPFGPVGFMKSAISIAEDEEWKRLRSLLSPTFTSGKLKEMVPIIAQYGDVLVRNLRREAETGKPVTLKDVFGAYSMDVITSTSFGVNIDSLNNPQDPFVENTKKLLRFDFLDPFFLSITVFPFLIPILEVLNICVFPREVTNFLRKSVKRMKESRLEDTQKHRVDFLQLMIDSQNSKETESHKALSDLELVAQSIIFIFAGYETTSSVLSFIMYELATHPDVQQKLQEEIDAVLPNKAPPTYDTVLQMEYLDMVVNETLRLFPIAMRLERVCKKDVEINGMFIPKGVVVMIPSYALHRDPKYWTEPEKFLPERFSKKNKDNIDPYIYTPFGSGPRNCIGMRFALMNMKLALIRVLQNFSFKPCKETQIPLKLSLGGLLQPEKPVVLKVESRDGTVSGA

CYP3A5 = CYP3A5 (Homo sapiens (Human), UniProt P20815); experiment: biochemical
CYP3A5, sequence (P20815 whole entry): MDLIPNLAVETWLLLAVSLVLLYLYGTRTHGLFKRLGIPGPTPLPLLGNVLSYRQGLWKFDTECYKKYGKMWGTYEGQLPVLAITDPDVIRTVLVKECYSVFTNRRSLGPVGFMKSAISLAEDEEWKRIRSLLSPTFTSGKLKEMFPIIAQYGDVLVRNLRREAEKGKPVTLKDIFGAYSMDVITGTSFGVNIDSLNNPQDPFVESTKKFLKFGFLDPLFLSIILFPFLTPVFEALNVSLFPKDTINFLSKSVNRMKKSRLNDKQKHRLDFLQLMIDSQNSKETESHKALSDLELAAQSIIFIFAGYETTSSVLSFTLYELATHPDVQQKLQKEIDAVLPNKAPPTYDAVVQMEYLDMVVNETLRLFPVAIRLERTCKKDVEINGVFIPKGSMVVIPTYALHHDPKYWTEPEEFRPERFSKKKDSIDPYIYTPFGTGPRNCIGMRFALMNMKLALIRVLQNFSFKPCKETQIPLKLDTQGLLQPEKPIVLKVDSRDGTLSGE

CYP3A4 versus CYP3A5 = CYP3A4 versus CYP3A5 (Homo sapiens (Human), UniProt P08684); experiment: in vitro
CYP3A4 versus CYP3A5, sequence (P08684 whole entry): as the sequence (P08684 whole entry) above

[3] = Geometric mean of 2-5 determinations unless otherwise indicated (a: single determination; b: 7-8 determinations)

Row | Compound | IC50 [1, 3] | IC50 (CYP3A4) | IC50 (CYP3A5) | further results
1 | COC(=O)NC1CN(c2ncnc3c2c(-c2cnn(C)c2-c2ccc(C4CC4)cc2)nn3C)C1 [Example 23, methyl (1-{3-[5-(4-cyclopropylphenyl)-1-methyl-1H-pyrazol-4-yl]-1-methyl-1H-pyrazolo[3,4-d]pyrimidin-4-yl}azetidin-3-yl)carbamate] | < 0.00211 µM |  |  | 
2 | Cn1ncc(-c2nn(C)c3ncnc(N4CC(F)C4)c23)c1-c1ccc(C2CC2)cc1 [Example 3, 3-[5-(4-Cyclopropylphenyl)-1-methyl-1H-pyrazol-4-yl]-4-(3-fluoroazetidin-1-yl)-1-methyl-1H-pyrazolo[3,4-d]pyrimidine] | < 0.00131 µM |  |  | 
3 | CCCCCC[C@@H]([C@@H](C)O)n1cnc2c(N)ncnc21 (racemic) [EHNA, erythro-9-(2-hydroxy-3-nonyl) adenine] |  |  |  | IC50 [2]: 1.7 µM
4 | 3-[5-(4-chloro-3- fluorophenyl)-1- methyl-1H-pyrazol- 4-yl]-1-methyl-4-[3- (1-methyl-1H- pyrazol-3- yl)azetidin-1-yl]-1H- pyrazolo[3,4- d]pyrimidine [Example 19] |  |  |  | IC50 [1]: < 0.00287 µM
5 | CCc1ccc(-c2c(-c3nn(C)c4ncnc(N5CC[C@H](N6CCCCC6)C5)c34)cnn2C)cc1 [Example 56, 3-[5-(4-ethylphenyl)-1-methyl-1H-pyrazol-4-yl]-1-methyl-4-[(3S)-3-(piperidin-1-yl)pyrrolidin-1-yl]-1H-pyrazolo[3,4-d]pyrimidine] |  | 0.0397 µM and 0.0711 µM | 3.47 µM and 6.96 µM | selectivity ratio (CYP3A4 versus CYP3A5; probe midazolam): 87; selectivity ratio (CYP3A4 versus CYP3A5; probe testosterone): 98; inhibition at 0.316 µM ([1]; at 316 nM, single determination): 41%
6 | Cc1ccc(-c2c(-c3nn(C)c4ncnc(N5CC[C@H](N6CCCCC6)C5)c34)cnn2C)cc1 [Example 2, 1-Methyl-3-[1-methyl-5-(4-methylphenyl)-1H-pyrazol-4-yl]-4-[(3S)-3-(piperidin-1-yl)pyrrolidin-1-yl]-1H-pyrazolo[3,4-d]pyrimidine] |  | 0.0653 µM and 0.122 µM | 9.69 µM | 
